Laboratory results published in paper PMC8793051 (ACS Omega, 2022).

How the values were obtained:
[1] = test system: TK-10; test: NCI-60 SRB growth assay; assay type: cell-based, human; conditions: for GI50 / CC50: Homo sapiens; for GI50 / TGI: TK-10; for CC50: TK-10, read-out: LC50
[2] = test system: SN12C; test: NCI-60 SRB growth assay; assay type: cell-based, human; conditions: for TGI: SN12c
[3] = test system: SNB-19; test: NCI-60 SRB growth assay; assay type: cell-based, human; conditions: for CC50: SNB-19, read-out: LC50
[4] = test system: SK-OV-3; test: NCI-60 SRB growth assay; assay type: cell-based, human; conditions: for GI50 / CC50: Homo sapiens; for GI50 / TGI: SK-OV-3; for CC50: SK-OV-3, read-out: LC50
[5] = test system: SK-MEL-28; test: NCI-60 SRB growth assay; assay type: cell-based, human; conditions: for GI50 / CC50: Homo sapiens; for GI50 / TGI: SK-MEL-28; for CC50: SK-MEL-28, read-out: LC50
[6] = test system: M14; test: NCI-60 SRB growth assay; assay type: cell-based, human; conditions: for GI50 / CC50: Homo sapiens; for GI50 / TGI: M14; for CC50: M14, read-out: LC50
[7] = test system: HL-60(TB)
[8] = test system: A549/ATCC; test: NCI-60 SRB growth assay; assay type: cell-based, human; conditions: for TGI: A549/ATCC; for GI50: Homo sapiens, A549
[9] = test system: NCI-H23; test: NCI-60 SRB growth assay; assay type: cell-based, human; conditions: for GI50 / CC50: Homo sapiens; for GI50: NCI-H23; for CC50: NCI-H23, read-out: LC50; for TGI: NCI–H23
[10] = test system: OVCAR-8; test: NCI-60 SRB growth assay; assay type: cell-based, human; conditions: for GI50 / TGI: OVCAR-8
[11] = test system: MDA-MB-231 cells; test: Cell cycle analysis by flow cytometry; assay type: cell-based, human; conditions: at 6 and 12 h; control 1–2%

| Structure (SMILES) | GI50 [1] | CC50 [1] | TGI [1] | GI50 ([2]; Homo sapiens, SN12C) | TGI [2] | CC50 ([3]; Homo sapiens) | TGI ([3]; SNB-19) | GI50 [4] | CC50 [4] | GI50 [5] | CC50 [5] | TGI [5] | GI50 [6] | TGI [6] | TGI [8] | GI50 [8] | GI50 [9] | TGI [9] | GI50 ([10]; Homo sapiens) | TGI [10] | also measured |
| --- | --- | --- | --- | --- | --- | --- | --- | --- | --- | --- | --- | --- | --- | --- | --- | --- | --- | --- | --- | --- | --- |
| CCCN1CCN(c2ccc3[nH]c(-c4ccc5[nH]c(-c6ccc(OCC)c(OCC)c6)nc5c4)nc3c2)CC1 [11a, 2-(2-(3,4-Diethoxyphenyl)-1H-benzo[d]imidazol-5-yl)-5-(4-propylpiperazin-1-yl)-1H-benzo[d]imidazole] | 1220 nM | 2470 nM | 4900 nM | 450 nM | 2060 nM | 5600 nM | 2180 nM | 2100 nM | 9900 nM | 910 nM | 5200 nM | 2200 nM | 250 nM | 1500 nM | 3020 nM | 1170 nM | 250 nM | 700 nM | 450 nM | 2160 nM | CC50 ([2]; Homo sapiens, SN12C, read-out: LC50): 6750 nM; TGI [4]: 10200 nM; CC50 [6]: 5000 nM; TGI [7]: 2700 nM; CC50 [9]: 4240 nM; CC50 ([10]; Homo sapiens, OVCAR-8, read-out: LC50): > 100000 nM |
| CCCCN1CCN(c2ccc3[nH]c(-c4ccc5[nH]c(-c6ccc(C(F)(F)F)cc6)nc5c4)nc3c2)CC1 [12b, 5-(5-(4-Butylpiperazin-1-yl)-1H-benzo[d]imidazol-2-yl)2(4(trifluoromethyl)phenyl)-1H-benzo[d]imidazole] | – | – | – | 1540 nM | 3020 nM | – | – | – | – | 1700 nM | 5900 nM | 3100 nM | 370 nM | 2400 nM | 1190 nM | 350 nM | 1650 nM | 3360 nM | 1100 nM | 2800 nM | cells in the sub-G1 phase [11]: 7.4%; TGI [7]: 2800 nM; CC50 [9]: 6800 nM |
| CCCCN1CCN(c2ccc3[nH]c(-c4ccc5[nH]c(-c6ccc(OCC)c(OCC)c6)nc5c4)nc3c2)CC1 [12a, 5-(4-Butylpiperazin-1-yl)-2-(2-(3,4-diethoxyphenyl)-1H-benzo[d]imidazol-5-yl)-1H-benzo[d]imidazole] | 1660 nM | > 100000 nM | 5170 nM | 1030 nM | 2610 nM | 5580 nM | 2610 nM | 1330 nM | 8010 nM | 1010 nM | 4860 nM | 2220 nM | 310 nM | 1550 nM | 2930 nM | 1180 nM | 780 nM | 2350 nM | 890 nM | 3060 nM | GI50 ([3]; Homo sapiens, SNB-19): 1220 nM; TGI [4]: 3270 nM; CC50 [6]: 4680 nM |
